The subject of one series is NMDA receptors. Kind of series: Electrophysiological patch clamp test of the NMDA-induced current in hippocampal CA1 neurons. Type of series: cell-based, rat. As for the experimental part:
Under the circumstances, the effects of docosahexaenoic acid on NMDA receptors of PCP were investigated.
The investigation was conducted by an electrophysiological procedure. More specifically, the brain of a 2-week-old rat was delivered and slices were prepared. Then, neurons were taken from the hippocampal CA1 region and used as samples. An electrophysiological test was conducted by a patch clamp method under fixed potential conditions.
In general terms: The patch-clamp technique gives a direct electrical read-out from membranes.

Series [1] concerns negative symptoms of schizophrenia. The series is described as follows: One-month oral administration to subjects, compared with placebo. Type of series: in vivo. The following applies: human, oral 300 mg three times a day. As for the experimental part: Sixteen subjects aged from 35 to 60 were treated with either the antipsychotic of the present invention or a placebo. Eleven out of these sixteen subjects had been treated with chlorpromazine and haloperidol in the past. Eight subjects were treated with the antipsychotic of the present invention and the other eight were treated with the placebo.
Docosahexaenoic acid or placebo was orally administered to the subjects three times a day, each in a dose of 300 mg.

With `CN[C@H](CC(=O)O)C(=O)O` [NMDA, N-methyl-D-aspartic acid], the “inward current caused by NMDA” value in the series with NMDA receptors (30 μM NMDA, holding potential -50 mV, rat hippocampal CA1 neurons) is given as 300 pA. Take `c1ccc(C2(N3CCCCC3)CCCCC2)cc1` [PCP, phencyclidine]: the “change of NMDA-induced current on treatment with PCP” value with NMDA receptors (5 μM PCP and 30 μM NMDA) is “decreased by half”. `CC/C=C\C/C=C\C/C=C\C/C=C\C/C=C\C/C=C\CCC(=O)O` [docosahexaenoic acid]: in series [1], the primary side effects entry is on record as “neither primary side effects”; the “variations in biochemical blood and urine tests” value was “nor significant variations in biochemical blood and urine tests”.

The values are drawn from patent publication US6306907A, “Antipsychotic” (Taiyo Fishery Co., Ltd., priority 1992, dated 2001).
